Test results taken from patent publication US20230172897A1, “METHODS OF TREATING BREAST CANCERS WITH SELECTIVE ANDROGEN RECEPTOR MODULATORS AND ADDITIONAL THERAPEUTIC AGENTS” (VERU, INC., priority 2021, published 2023).
“Also recorded” adds a separate entry of the source.

Assays:
[1] = test system: HCI-007 tumors (ER-positive, PR-positive, HER2-positive, AR-positive); assay: HCI-007 (HCI-7) patient derived xenograft in NSG mice; type: in vivo
Description: HCI-007 tumor pieces (1 mm^3) were implanted surgically (one per mouse) under the skin on the flanks of NSG mice. Simultaneously, 17β-estradiol pellet (Innovative Research of America) was implanted surgically under the skin of each mouse. Tumors were allowed to grow and reach approximately 100 mm^3 volume (1*W*W*0.526). […] Tumor volume was measured weekly and represented as % change in tumor volume (FIG. 32). Mice were sacrificed and tumors stored for further analysis.
All animal protocols were approved by The University of Tennessee Health Science Center (UTHSC) Institutional Animal Care and Use Research Committee. Xenograft experiments were performed as previously published (Narayanan et al. (2014) PLoS One 9, e103202). Briefly, 3 million MCF-7 cells were suspended in 0.05 ml MEM+10% FBS and 0.05 ml Matrigel/nude mouse and were injected subcutaneously. Once the tumor size reached 100-200 mm^3, the animals were randomized and treated orally with the indicated drugs formulated in DMSO:PEG-300 (15:85). HCI-7, HCI-9, and HCI-13 PDXs were gifts kindly donated by Dr. Alana Welm (Huntsman Cancer Institute, Salt Lake City, Utah). […] Tumor volume was measured twice weekly for MCF-7 xenograft and once or twice weekly for HCI PDXs. At the end of the study, animals were sacrificed and tumors were excised, weighed, and stored for various analyses.
From the several PDXs available, three AR-positive PDXs were identified, based on gene expression profile. […] The enzalutamide dose was selected based on previous published experiments (Park et al. (2016) Cancer Invest 34, 517-520; Pollock et al. (2016) Nat Chem Biol 12, 795-801) as well as from internal experiments conducted in prostate cancer xenografts and in Hershberger studies.

MCF-7-AR cells = assay: Growth assay (SRB), MCF-7 stably transfected with AR or GFP; type: cell-based; conditions: 6 days
Description: After 6 days of treatment, cells were harvested, and the number of cells was counted. […] Medium was changed after 3 days and re-treated. Cells were fixed after 6 days of treatment and the cell viability was measured by SRB assay. […] Medium was changed, and the cells were re-treated on days 4 and 7. Medium was collected, pooled from triplicates, and stored in −80° C. After 10 days of treatment, cells were fixed, and cell viability was measured using SRB. MCF-7 cells stably transfected with GFP (MCF-7-GFP) were plated in growth medium. Twenty-four hours after plating, cells were fed with the conditioned medium obtained from patient-derived fibroblasts as indicated above. Cells were fed for 10 days with conditioned medium, with medium changed on days 4 and 7. After 10 days of treatment, cells were fixed, and the viability was measured by SRB assay. […] AR-positive, but ER-negative HCI-9 PDX was surgically implanted as 1 mm^3 fragments under the mammary fat pad in NSG mice (n=8-10/group). […] Tumor volume was measured thrice weekly. […] ER-α from HCI-13 was cloned into pCR3.1 vector. […] Values are expressed as average ±S.E. from n=3-4/data point.
Cells were plated at varying densities in growth medium in 96 well plates. Cells were treated as indicated in the figures and viability measured using sulforhodamine B (SRB) or the number of cells counted using Coulter counter.

HCI-13 tumors = assay: Phospho-proteomics (protein array) of HCI-13 PDX; type: in vivo, mice
Description: Whole tissue lysates were directly prepared from the tissue sections using a 1:1 mixture of T-PER (Tissue Protein Extraction Reagent; Pierce, Rockford, Ill.) and 2× Tris-Glycine SDS Sample Buffer (Invitrogen, Carlsbad, Calif.) supplemented with 5% 2-mercaptoethanol. Samples were boiled for 8 minutes and stored at −80° C. until arrayed.
Samples and standard curves for internal quality assurance were printed onto nitrocellulose-coated slides (Grace Bio-labs, Bend, Oreg.) using an Aushon 2470 arrayer (Aushon BioSystems, Billerica, Mass.). Selected arrays were used to estimate the amount of protein in each sample using a Sypro Ruby Protein Blot Stain (Molecular Probes, Eugene, Oreg.) protocol following manufacturer's instructions (Pin et al. (2014) Curr Protoc Protein Sci 75, Unit 27 27). Remaining arrays were tested with a single primary antibody using an automated system (Dako Cytomation, Carpinteria, Calif.) as previously described (Baldelli et al. (2015) Oncotarget 6, 32368-32379). Arrays were first incubated with Reblot Antibody stripping solution (Chemicon, Temecula, Calif.), followed by two washes in PBS, and I-block solution (Tropix, Bedford, Mass.) for 4 hours. Arrays were probed with a total of 174 antibodies targeting a wide range of protein kinases and their activation via phosphorylation. Antibodies specificity was tested using standard immunoblotting on a panel of cell lysates. […]
The commercially available Signal Amplification System (CSA; Dako Cytomation) and a streptavidin-conjugated IRDye 680 secondary antibody (LI-COR Biosciences, Lincoln, Nebra.) were used as signal detection methods. Images were acquired on the laser-based PowerScanner (TECAN, Monnedorf, Switzerland), and data were analyzed using the MicroVigene software Version 5.1 (Vigene Tech, Carlisle, Mass.) as previously described (Baldelli et al. (2015) Oncotarget 6, 32368-32379). […]

SMILES: C[C@](O)(COc1ccc(C#N)cc1)C(=O)Nc1ccc(C#N)c(C(F)(F)F)c1 [Formula IX, (S)—N-(4-Cyano-3-(trifluoromethyl)phenyl)-3-(4-cyanophenoxy)-2-hydroxy-2-methylpropanamide]
- HCI-7 tumor weights at end of study ([1]; 10 mg/kg oral): significantly smaller
- HCI-7 tumor growth ([1]; Formula IX 10 mg/kg, enzalutamide 20 or 30 mg/kg, oral): inhibited significantly; also recorded: grew slowly
- proliferation of MCF-7 cells expressing AR (MCF-7-AR cells): inhibited proliferation
- expression of proliferation marker Ki67 (HCI-13 tumors): inhibited the expression
- phosphorylation of oncogenic proteins (pERK, PKC z, RSK3, Ezrin, BCL2, ELF4G, ER) (HCI-13 tumors): inhibited the phosphorylation
- phosphorylation of tumor suppressor proteins (p53, p27, ACC, AR) (HCI-13 tumors): increased the phosphorylation
